Results taken from patent US10407425B2, “Indazole inhibitors of the Wnt signal pathway and therapeutic uses thereof” (Samumed, LLC, priority 2012, dated 2019).
pIC50: −log10 of the molar value.

Test system: Wnt activity
Experiment: Wnt activity reporter assay (SP5 promoter firefly luciferase in SW480 cells)
Format: cell-based
Conditions: Homo sapiens; SW480 cells bearing SP5 promoter luciferase reporter; 24 h after compound addition; read-out: Wnt inhibition
Description: The above synthesized compounds were screened using the assay procedure for Wnt activity described below.
Reporter cell lines can be generated by stably transducing cells of cancer cell lines (e.g., colon cancer) with a lentiviral construct that include a wnt-responsive promoter driving expression of the firefly luciferase gene.
Lentiviral constructs can be made in which the SP5 promoter, a promoter having eight TCF/LEF binding sites derived from the SP5 promoter, is linked upstream of the firefly luciferase gene. The lentiviral constructs can also include a hygromycin resistance gene as a selectable marker. The SP5 promoter construct can be used to transduce SW480 cells, a colon cancer cell line having a mutated APC gene that generates a truncated APC protein, leading to de-regulated accumulation of β-catenin.
Cultured SW480 cells bearing a reporter construct can be distributed at approximately 10,000 cells per well into 384 well multiwell plates. Compounds from a small molecule compound library can then be added to the wells in half-log dilutions using a three micromolar top concentration. A series of control wells for each cell type receive only buffer and compound solvent. Twenty-four hours after the addition of compound, reporter activity for luciferases can be assayed, for example, by addition of the BrightGlo luminescence reagent (Promega) and the Victor3 plate reader (Perkin Elmer). Readings can be normalized to DMSO only treated cells, and normalized activities can then be used in the IC50 calculations.

c1cc(-c2cncc3[nH]c(-c4n[nH]c5ccc(-c6cncc(CNCC7CCCC7)c6)cc45)nc23)cs1 [Compound 311, 1-Cyclopentyl-N-((5-(3-(7-(thiophen-3-yl)-3H-imidazo[4,5-c]pyridin-2-yl)-1H-indazol-5-yl)pyridin-3-yl)methyl)methanamine]
pIC50: 7.24

CC(C)(C)C(=O)Nc1cncc(-c2ccc3[nH]nc(-c4nc5c(N6CCCCC6)cncc5[nH]4)c3c2)c1 [Compound 205, N-(5-(3-(7-(Piperidin-1-yl)-3H-imidazo[4,5-c]pyridin-2-yl)-1H-indazol-5-yl)pyridin-3-yl)pivalamide]
pIC50: 7.39

CN1CCN(c2cncc3[nH]c(-c4n[nH]c5ccc(-c6cccnc6)cc45)nc23)CC1 [Compound 4, 7-(4-methylpiperazin-1-yl)-2-(5-(pyridin-3-yl)-1H-indazol-3-yl)-3H-imidazo[4,5-c]pyridine]
pIC50: 7.40 to 7.89

CC(C)(C)CC(=O)Nc1cncc(-c2ccc3[nH]nc(-c4nc5c(-c6cccc(F)c6)cncc5[nH]4)c3c2)c1 [Compound 90, N-(5-(3-(7-(3-Fluorophenyl)-3H-imidazo[4,5-c]pyridin-2-yl)-1H-indazol-5-yl)pyridin-3-yl)-3,3-dimethylbutanamide]
pIC50: 7.92

Nc1cncc(-c2ccc3[nH]nc(-c4nc5ccncc5[nH]4)c3c2)c1 [Compound 268, 5-(3-(3H-Imidazo[4,5-c]pyridin-2-yl)-1H-indazol-5-yl)pyridin-3-amine]
pIC50: < 5.00

CN1CCN(c2cncc3[nH]c(-c4n[nH]c5ccc(-c6cncc(N7CCOCC7)c6)cc45)nc23)CC1 [Compound 5, 4-(5-(3-(7-(4-methylpiperazin-1-yl)-3H-imidazo[4,5-c]pyridin-2-yl)-1H-indazol-5-yl)pyridin-3-yl)morpholine]
pIC50: 7.01 to 7.17

O=C(Nc1cncc(-c2ccc3[nH]nc(-c4nc5ccncc5[nH]4)c3c2)c1)c1ccccc1 [Compound 275, N-(5-(3-(3H-Imidazo[4,5-c]pyridin-2-yl)-1H-indazol-5-yl)pyridin-3-yl)benzamide]
pIC50: 6.85

O=C(Nc1cncc(-c2ccc3[nH]nc(-c4nc5c(-c6ccoc6)cncc5[nH]4)c3c2)c1)C1CC1 [Compound 330, N-(5-(3-(7-(Furan-3-yl)-3H-imidazo[4,5-c]pyridin-2-yl)-1H-indazol-5-yl)pyridin-3-yl)cyclopropanecarboxamide]
pIC50: 6.13

CCC(=O)Nc1cncc(-c2ccc3[nH]nc(-c4nc5c(-c6cccc(F)c6)cncc5[nH]4)c3c2)c1 [Compound 24, N-(5-(3-(7-(3-Fluorophenyl)-3H-imidazo[4,5-c]pyridin-2-yl)-1H-indazol-5-yl)pyridin-3-yl)propionamide]
pIC50: 7.18

CCC(=O)Nc1cncc(-c2ccc3[nH]nc(-c4nc5c(-c6ccsc6)cncc5[nH]4)c3c2)c1 [Compound 289, N-(5-(3-(7-(Thiophen-3-yl)-3H-imidazo[4,5-c]pyridin-2-yl)-1H-indazol-5-yl)pyridin-3-yl)propionamide]
pIC50: 8.70

Cc1ccncc1-c1ccc2[nH]nc(-c3nc4c(-c5ccc(F)cc5)cncc4[nH]3)c2c1 [Compound 99, 7-(4-Fluorophenyl)-2-(5-(4-methylpyridin-3-yl)-1H-indazol-3-yl)-3H-imidazo[4,5-c]pyridine]
pIC50: < 5.30

CC(C)CC(=O)Nc1cncc(-c2ccc3[nH]nc(-c4nc5c(-c6ccccc6F)cncc5[nH]4)c3c2)c1 [Compound 11, N-(5-(3-(7-(2-fluorophenyl)-3H-imidazo[4,5-c]pyridin-2-yl)-1H-indazol-5-yl)pyridin-3-yl)-3-methylbutanamide]
pIC50: 7.19 to 8.46

CCC(=O)Nc1cncc(-c2ccc3[nH]nc(-c4nc5c(-c6cncc(F)c6)cncc5[nH]4)c3c2)c1 [Compound 20, N-(5-(3-(7-(5-fluoropyridin-3-yl)-3H-imidazo[4,5-c]pyridin-2-yl)-1H-indazol-5-yl)pyridin-3-yl)propionamide]
pIC50: 8.74 to 8.85

CC(C)CC(=O)Nc1cncc(-c2ccc3[nH]nc(-c4nc5c(-c6ccc(F)cc6)cncc5[nH]4)c3c2)c1 [Compound 12, N-(5-(3-(7-(4-fluorophenyl)-3H-imidazo[4,5-c]pyridin-2-yl)-1H-indazol-5-yl)pyridin-3-yl)-3-methylbutanamide]
pIC50: 8.10 to 8.22

O=C(Nc1cncc(-c2ccc3[nH]nc(-c4nc5c(-c6cccc(F)c6)cncc5[nH]4)c3c2)c1)C1CCCCC1 [Compound 94, N-(5-(3-(7-(3-Fluorophenyl)-3H-imidazo[4,5-c]pyridin-2-yl)-1H-indazol-5-yl)pyridin-3-yl)cyclohexanecarboxamide]
pIC50: 7.96

CN(C)Cc1cncc(-c2ccc3[nH]nc(-c4nc5c(-c6ccsc6)cncc5[nH]4)c3c2)c1 [Compound 301, N,N-Dimethyl-1-(5-(3-(7-(thiophen-3-yl)-3H-imidazo[4,5-c]pyridin-2-yl)-1H-indazol-5-yl)pyridin-3-yl)methanamine]
pIC50: 7.16

O=C(Nc1cncc(-c2ccc3[nH]nc(-c4nc5c(-c6ccc(F)cc6)cncc5[nH]4)c3c2)c1)c1ccccc1 [Compound 104, N-(5-(3-(7-(4-Fluorophenyl)-3H-imidazo[4,5-c]pyridin-2-yl)-1H-indazol-5-yl)pyridin-3-yl)benzamide]
pIC50: 8.15

c1cc(-c2cncc3[nH]c(-c4n[nH]c5ccc(-c6cncc(CN7CCCCC7)c6)cc45)nc23)cs1 [Compound 303, 2-(5-(5-(Piperidin-1-ylmethyl)pyridin-3-yl)-1H-indazol-3-yl)-7-(thiophen-3-yl)-3H-imidazo[4,5-c]pyridine]
pIC50: 6.00

CC(C)C(=O)Nc1cncc(-c2ccc3[nH]nc(-c4nc5c(N6CCN(C)CC6)cncc5[nH]4)c3c2)c1 [Compound 2, N-(5-(3-(7-(4-methylpiperazin-1-yl)-3H-imidazo[4,5-c]pyridin-2-yl)-1H-indazol-5-yl)pyridin-3-yl)isobutyramide]
pIC50: 6.84 to 6.90

CN(C)Cc1cncc(-c2ccc3[nH]nc(-c4nc5c(N6CCN(C)CC6)cncc5[nH]4)c3c2)c1 [Compound 3, N,N-dimethyl-1-(5-(3-(7-(4-methylpiperazin-1-yl)-3H-imidazo[4,5-c]pyridin-2-yl)-1H-indazol-5-yl)pyridin-3-yl)methanamine]
pIC50: 6.75 to 7.08

CCCCC(=O)Nc1cncc(-c2ccc3[nH]nc(-c4nc5c(-c6ccoc6)cncc5[nH]4)c3c2)c1 [Compound 329, N-(5-(3-(7-(Furan-3-yl)-3H-imidazo[4,5-c]pyridin-2-yl)-1H-indazol-5-yl)pyridin-3-yl)pentanamide]
pIC50: 8.40

CN1CCN(c2cncc3[nH]c(-c4n[nH]c5ccc(-c6cncc(NC(=O)C7CC7)c6)cc45)nc23)CC1 [Compound 260, N-(5-(3-(7-(4-Methylpiperazin-1-yl)-3H-imidazo[4,5-c]pyridin-2-yl)-1H-indazol-5-yl)pyridin-3-yl)cyclopropanecarboxamide]
pIC50: 6.50

CC(C)CC(=O)Nc1cncc(-c2ccc3[nH]nc(-c4nc5c(N6CCCCC6)cncc5[nH]4)c3c2)c1 [Compound 199, 3-Methyl-N-(5-(3-(7-(piperidin-1-yl)-3H-imidazo[4,5-c]pyridin-2-yl)-1H-indazol-5-yl)pyridin-3-yl)butanamide]
pIC50: 6.51

CC(C)CC(=O)Nc1cncc(-c2ccc3[nH]nc(-c4nc5c(-c6cccs6)cncc5[nH]4)c3c2)c1 [Compound 397, 3-Methyl-N-(5-(3-(7-(thiophen-2-yl)-3H-imidazo[4,5-c]pyridin-2-yl)-1H-indazol-5-yl)pyridin-3-yl)butanamide]
pIC50: 10.00

O=C(Nc1cncc(-c2ccc3[nH]nc(-c4nc5c(-c6ccoc6)cncc5[nH]4)c3c2)c1)C1CCCCC1 [Compound 333, N-(5-(3-(7-(Furan-3-yl)-3H-imidazo[4,5-c]pyridin-2-yl)-1H-indazol-5-yl)pyridin-3-yl)cyclohexanecarboxamide]
pIC50: 7.59

FC1(F)CCN(Cc2cncc(-c3ccc4[nH]nc(-c5nc6c(N7CCCCC7)cncc6[nH]5)c4c3)c2)C1 [Compound 342, 2-(5-(5-((3,3-Difluoropyrrolidin-1-yl)methyl)pyridin-3-yl)-1H-indazol-3-yl)-7-(piperidin-1-yl)-3H-imidazo[4,5-c]pyridine]
pIC50: 7.70

CC(C)C(=O)Nc1cncc(-c2ccc3[nH]nc(-c4nc5c(-c6ccccc6F)cncc5[nH]4)c3c2)c1 [Compound 31, N-(5-(3-(7-(2-Fluorophenyl)-3H-imidazo[4,5-c]pyridin-2-yl)-1H-indazol-5-yl)pyridin-3-yl)isobutyramide]
pIC50: 8.30

CN1CCN(c2cncc3[nH]c(-c4n[nH]c5ccc(-c6cncc(N)c6)cc45)nc23)CC1 [Compound 247, 5-(3-(7-(4-Methylpiperazin-1-yl)-3H-imidazo[4,5-c]pyridin-2-yl)-1H-indazol-5-yl)pyridin-3-amine]
pIC50: 8.70

O=C(Nc1cncc(-c2ccc3[nH]nc(-c4nc5c(-c6cccc(F)c6)cncc5[nH]4)c3c2)c1)C1CC1 [Compound 91, N-(5-(3-(7-(3-Fluorophenyl)-3H-imidazo[4,5-c]pyridin-2-yl)-1H-indazol-5-yl)pyridin-3-yl)cyclopropanecarboxamide]
pIC50: 8.70

CC(C)CC(=O)Nc1cncc(-c2ccc3[nH]nc(-c4nc5c(-c6cc(F)cc(NCCN(C)C)c6)cncc5[nH]4)c3c2)c1 [Compound 349, N-(5-(3-(7-(3-(2-(Dimethylamino)ethylamino)-5-fluorophenyl)-3H-imidazo[4,5-c]pyridin-2-yl)-1H-indazol-5-yl)pyridin-3-yl)-3-methylbutanamide]
pIC50: 7.66
